{"source": "patent US12240830B2", "about": "“Fused ring heteroaryl compounds and use thereof” (BiSiChem Co., Ltd., priority 2021, dated 2025)", "target": "T1, ALK5 (Homo sapiens, UniProt P36897)", "T1 construct": "Cells were seeded at 3×10^4/well in 24-well plates were transiently transfected with 500 ng of (CAGA)-12-luciferase reporter construct; endogenous in cells; host or cells: Hs578T (ATCC HTB-22)", "T1 sequence (P36897 34-503)": "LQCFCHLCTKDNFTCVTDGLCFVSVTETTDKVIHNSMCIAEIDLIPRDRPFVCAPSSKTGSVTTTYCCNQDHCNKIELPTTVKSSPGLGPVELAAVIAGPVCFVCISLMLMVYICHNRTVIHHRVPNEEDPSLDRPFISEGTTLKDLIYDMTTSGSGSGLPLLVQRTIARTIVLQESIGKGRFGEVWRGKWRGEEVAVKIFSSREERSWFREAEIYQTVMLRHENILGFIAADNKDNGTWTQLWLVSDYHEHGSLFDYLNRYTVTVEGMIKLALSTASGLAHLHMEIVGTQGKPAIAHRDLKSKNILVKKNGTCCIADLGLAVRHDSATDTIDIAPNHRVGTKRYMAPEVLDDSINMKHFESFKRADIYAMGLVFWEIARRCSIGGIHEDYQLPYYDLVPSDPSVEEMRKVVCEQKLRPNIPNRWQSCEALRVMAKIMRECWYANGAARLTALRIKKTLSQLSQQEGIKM", "assay": "Cell-based luciferase reporter assay for ALK5 activity", "conditions": "(CAGA)-12-luciferase reporter, cells stimulated with 2 ng/ml recombinant TGF-β1 for 12 hours; Hs578T cells; read-out: Relative luciferase activity: IC50 value", "procedure": "Human cancer cell lines Hs578T (ATCC® HTB-22™) cells were grown in DMEM (Dulbecco's modified Eagle's medium) supplemented with 10% fetal bovine serum and 1% mixture of penicillin and streptomycin (Gibco). Cells were maintained at 37° C. in a humidified 5% CO2− atmosphere.\nCell-Based Luciferase Reporter Assay for ALK5 Activity\nCells were seeded at 3×10^4/well in 24-well plates were transiently transfected with 500 ng of (CAGA)-12-luciferase reporter construct and 5 ng of pRL-TK Renilla luciferase vector (Promega, Madison, WI), an internal control for transfection efficiency, using Lipofectamine 3000 reagent (Thermo Fisher Scientific, Waltham, USA). After 24 h transfection, the cells were pre-treated with ALK5 inhibitor in dose-dependent manner. And then, Cells stimulated with 2 ng/ml recombinant TGF-β1 for 12 hours. After the stimulation, the firefly and Renilla luciferase activities were measured by Dual-Luciferase Reporter Assay (Promega). […]"}
{"smiles": "Cc1cccc(-c2[nH]c(NCc3cccc(C)c3F)nc2-c2ccc3c(cnn3C)c2)n1", "note": "[Example 17, N-(2-fluoro-3-methylbenzyl)-4-(1-methyl-1H-indazol-5-yl)-5-(6-methylpyridin-2-yl)-1H-imidazol-2-amine]", "values": [{"measurement": "IC50", "value": "0.01 to 0.1", "unit": "µM"}]}
{"smiles": "Cc1ccc(CNc2nc(-c3ccc4c(cnn4C)c3)c(-c3cccc(C)n3)[nH]2)c(F)c1", "note": "[Example 18, N-(2-fluoro-4-methylbenzyl)-4-(1-methyl-1H-indazol-5-yl)-5-(6-methylpyridin-2-yl)-1H-imidazol-2-amine]", "values": [{"measurement": "IC50", "value": "< 0.01", "unit": "µM"}]}
{"smiles": "Cc1cccc(-c2[nH]c(NCc3ccc(C)c(F)c3)nc2-c2ccc3c(cnn3C)c2)n1", "note": "[Example 19, N-(3-fluoro-4-methylbenzyl)-4-(1-methyl-1H-indazol-5-yl)-5-(6-methyl-pyridine-2-yl)-1H-imidazol-2-amine]", "values": [{"measurement": "IC50", "value": "< 0.01", "unit": "µM"}]}
{"smiles": "Cc1cccc(-c2[nH]c(NCc3cccc(F)c3)nc2-c2ccc3c(cnn3S(C)(=O)=O)c2)n1", "note": "[Example 22, N-(3-fluorobenzyl)-5-(6-methylpyridin-2-yl)-4-(1-(methylsulfonyl)-1H-indazol-5-yl)-1H-imidazol-2-amine]", "values": [{"measurement": "IC50", "value": "> 0.1", "unit": "µM"}]}
{"smiles": "Cc1cccc(-c2[nH]c(NCc3cccc(Cl)c3F)nc2-c2ccc3c(cnn3C)c2)n1", "note": "[Example 23, N-(3-chloro-2-fluorobenzyl)-4-(1-methyl-1H-indazol-5-yl)-5-(6-methylpyridin-2-yl)-1H-imidazol-2-amine]", "values": [{"measurement": "IC50", "value": "< 0.01", "unit": "µM"}]}
{"smiles": "Cc1cccc(-c2[nH]c(NCc3cccc(F)c3)nc2-c2ccc3c(cnn3C(C)(C)CO)c2)n1", "note": "[Example 26, 2-(5-(2-((3-fluorobenzyl)amino)-5-(6-methylpyridin-2-yl)-1H-imidazol-4-yl)-1H-indazol-1-yl)-2-methylpropan-1-ol]", "values": [{"measurement": "IC50", "value": "> 0.1", "unit": "µM"}]}
{"smiles": "Cc1cccc(-c2[nH]c(NCc3cccc(Cl)c3F)nc2-c2ccc3c(cnn3C(F)F)c2)n1", "note": "[Example 27]", "values": [{"measurement": "IC50", "value": "0.01 to 0.1", "unit": "µM"}]}
{"smiles": "Cc1cccc(-c2[nH]c(NCc3ccc(Cl)c(Cl)c3)nc2-c2ccc3c(cnn3C(F)F)c2)n1", "note": "[Example 28, N-(3,4-dichlorobenzyl)-4-(1-(difluoromethyl)-1H-indazol-5-yl)-5-(6-methyl-pyridin-2-yl)-1H-imidazol-2-amine]", "values": [{"measurement": "IC50", "value": "0.01 to 0.1", "unit": "µM"}]}
{"smiles": "Cc1cccc(-c2[nH]c(NCc3ccc(F)c(F)c3)nc2-c2ccc3c(cnn3C(F)F)c2)n1", "note": "[Example 29, N-(3,4-difluorobenzyl)-4-(1-(difluoromethyl)-1H-indazol-5-yl)-5-(6-methyl-pyridin-2-yl)-1H-imidazol-2-amine]", "values": [{"measurement": "IC50", "value": "0.01 to 0.1", "unit": "µM"}]}
{"smiles": "Cc1cccc(-c2[nH]c(NCc3cccc(F)c3)nc2-c2cnc3c(cnn3C)c2)n1", "note": "[Example 31, N-(3-fluorobenzyl)-4-(1-methyl-1H-pyrazolo[3,4-b]pyridin-5-yl)-5-(6-methyl-pyridin-2-yl)-1H-imidazol-2-amine]", "values": [{"measurement": "IC50", "value": "< 0.01", "unit": "µM"}]}
{"smiles": "Cc1cccc(-c2[nH]c(NCc3cccc(F)c3)nc2-c2ccc3c(cnn3C)n2)n1", "note": "[Example 32, N-(3-fluorobenzyl)-4-(1-methyl-1H-pyrazolo[4,3-b]pyridin-5-yl)-5-(6-methyl-pyridin-2-yl)-1H-imidazol-2-amine]", "values": [{"measurement": "IC50", "value": "> 0.1", "unit": "µM"}]}
{"smiles": "Cc1cccc(-c2[nH]c(NCc3cccc(F)c3)nc2-c2cc3cnn(C)c3cn2)n1", "note": "[Example 33, N-(3-fluorobenzyl)-4-(1-methyl-1H-pyrazolo[3,4-c]pyridin-5-yl)-5-(6-methyl-pyridin-2-yl)-1H-imidazol-2-amine]", "values": [{"measurement": "IC50", "value": "< 0.01", "unit": "µM"}]}
{"smiles": "Cc1cccc(-c2[nH]c(NCc3cccc(F)c3F)nc2-c2ccc3c(cnn3C)c2)n1", "note": "[Example 35, N-(2,3-difluorobenzyl)-4-(1-methyl-1H-indazol-5-yl)-5-(6-methylpyridin-2-yl)-1H-imidazol-2-amine]", "values": [{"measurement": "IC50", "value": "0.01 to 0.1", "unit": "µM"}]}
{"smiles": "Cc1cccc(-c2[nH]c(NCc3ccc(F)cc3F)nc2-c2ccc3c(cnn3C)c2)n1", "note": "[Example 36, N-(2,4-difluorobenzyl)-4-(1-methyl-1H-indazol-5-yl)-5-(6-methylpyridin-2-yl)-1H-imidazol-2-amine]", "values": [{"measurement": "IC50", "value": "0.01 to 0.1", "unit": "µM"}]}
{"smiles": "Cc1cccc(-c2[nH]c(NCc3cccc(F)c3)nc2-c2cnc3[nH]ncc3c2)n1", "note": "[Example 38, N-(3-fluorobenzyl)-5-(6-methylpyridin-2-yl)-4-(1H-pyrazolo[3,4-b]pyridin-5-yl)-1H-imidazol-2-amine]", "values": [{"measurement": "IC50", "value": "0.01 to 0.1", "unit": "µM"}]}
